Measured values taken from US9011915B2, “Conveniently implantable sustained release drug compositions” (Ramscor, Inc., priority 2004, dated 2015).
Like-named read-outs stand apart in the source and are kept apart here. Blank lines part the entries; values can stand above or below the compound they belong to.

Tests used:
[1] = In vivo release of dexamethasone from 25% dexamethasone in benzyl benzoate (DB) injected into posterior segment, vitreous humor HPLC; parameters: species or system rabbit; conditions: for mean vitreous level of dexamethasone: 25% formulation in benzyl benzoate
Procedure: Benzyl benzoate (BB) served as placebo.
The in vivo release of the DB composition was studied in twenty-four rabbits. Twenty-five μl of 25% DB was injected into the posterior segment of one eye of twelve animals and the contralateral eye received a placebo. Another twelve animals received 50 μl of the DB in one eye and 50 μl of the BB placebo in the second eye. Animals were euthanized at the appropriate time points and vitreous humor samples were removed surgically. Dexamethasone concentration was determined by high pressure liquid chromatography (HPLC) as described in Example 5.

blood glucose levels = assay: Injected versus transdermal delivery of insulin, blood glucose levels; assay type: in vivo, mouse
Procedure: The comparison of injected versus transdermal delivery of several formulation of insulin was studied in a mouse model. One mg of porcine insulin was injected IP (intraperitoneal) into a mouse. […] One mg of porcine insulin mixed with 0.1 ml of tocopherol acetate was applied topically on the skin of a shaved mouse.
Porcine insulin (20 mg) was mixed in 199 mg/ml of tocopheryl acetate and formed a paste (or gel) which and was applied to the backs of shaved albino mice as follows: Mouse #1 was treated with 39.8 mg of insulin/tocopherol acetate paste, equaling 3.6 mg of insulin; mouse #2 was treated with 75.2 mg of insulin/tocopherol acetate paste, equaling 6.9 mg of insulin. Tail blood glucose levels were determined by Home Diagnostics, Inc. True Track smart system at intervals depicted in FIG. 22.

[2] = cited from earlier work
[3] = cited from earlier work; remark: listed apart in the source
COX-1 and COC-2 enzymes = conditions: acetylation of COX enzymes, in the eye; cited from earlier work
[4] = ingested 650 mg 2-ABA, cited from earlier work; for maximum synovial fluid levels / time of maximum synovial fluid levels: human knee
[5] = In vivo release of rapamycin from TEAC formulation in vitreous cavity, LC-MS; parameters: species or system NZW rabbits; conditions: 5.0 mg rapamycin in 10:90 rapamycin:TEAC mixture
Procedure: Five (5.0) mg rapamycin contained in a 10:90 rapamycin:TEAC mixture were injected into the vitreous cavity of one eye in three 4.0-4.5 kg. NZW rabbits. Vitreous sampling was performed in each animal, and the concentration of released Rapamycin determined by liquid chromatography and mass spectrometry.

[6] = cited from earlier work; remark: listed apart in the source
[7] = 3:1 dexamethasone:ciprofloxacin in benzyl benzoate
Procedure: The vials for the release studies were labeled and the weight of each vial was recorded. To each vial was added 3-4 grams of 0.9% saline solution and the weight was recorded. Then the SRF was injected or placed at the bottom of the vial. The weight of the SRF was recorded. An additional amount of 0.9% saline solution was added to a total of 10 grams of saline. The resulting vial was kept in an incubator or water bath at 37° C. Samples were taken periodically to measure the release profile of dexamethasone or triamcinolone acetonide using a HPLC instrument. Sampling protocol was carried out according to the following procedure: Using a disposable pipette, 8 grams of the saline solution containing dexamethasone or triamcinolone acetonide was withdrawn carefully from each vial. 8 grams of 0.9% saline solution was then added to each vial. The vials were kept at 37° C. after sampling.
The HPLC analysis was carried out using a Beckman Gold Instrument with an autosampler. […] Calibrators and samples were injected onto a C18 column (Rainin, 250×4.6 mm) containing a guard column (C18, 4.6 mm×1 cm) and analyzed, respectively. […] The dexamethasone or triamcinolone acetonide (retention times, 6-4 minutes) concentration of each sample was calculated from the standard curve using the software of the Beckman Gold instrument.

[8] = continuously exceeded over an extended period of time; cited from earlier work
[9] = 1 mg porcine insulin injected IP
[10] = 1 mg porcine insulin mixed with 0.1 ml tocopherol acetate, injected IP

mean vitreous level of dexamethasone ([1]; 25 μl injection, over a sixty day period): approximately 4.0 μg/ml
mean vitreous level of dexamethasone ([1]; 50 μl, over a three-month period): approximately 8.0 μg/ml
mean concentration of released dexamethasone in vitreous humor ([1]; high dose: 50 μl 25% DB (12 mg dexamethasone), Day 7 to Day 90): 5560 ng/mL
mean level of dexamethasone in vitreous humor ([1]; low dose: 25 μl 25% DB (6 mg dexamethasone), Day 7 to Day 60): 2800 ng/mL
concentration at 60 day ([1]; rabbit, vitreous humor, other: injected into the posterior segment of the eye, 6 mg, low dose: 25 μl 25% DB, end of the Day 7 to Day 60 period, read-out: mean level of dexamethasone in vitreous humor, declined to): 800 ng/mL
concentration at 90 day ([1]; rabbit, vitreous humor, other: injected into the posterior segment of the eye, 12 mg, high dose: 50 μl 25% DB, by Day 90, read-out: mean level of dexamethasone in vitreous humor): 1850 ng/mL
Compound: C[C@@H]1C[C@H]2[C@@H]3CCC4=CC(=O)C=C[C@]4(C)[C@@]3(F)[C@@H](O)C[C@]2(C)[C@@]1(O)C(=O)CO [dexamethasone]

Compound: porcine insulin: porcine insulin
recovery from hypoglycemia (blood glucose levels; [9]): never recovered
time to precipitous drop in glucose level (blood glucose levels; [9]): one-half
recovery from hypoglycemia (blood glucose levels; [10]): did not recover
time over which perceptible drop in glucose level was seen (blood glucose levels; [10]): up to 3 hours
time of lowest glucose level (blood glucose levels; 1 mg porcine insulin mixed with 0.1 ml tocopherol acetate, topically on shaved skin): 5.5 h
slow recovery to pre-treatment glucose levels after (blood glucose levels; transdermal insulin with tocopherol acetate): 24 to 48 h

Compound: CC(=O)Oc1ccccc1C(=O)O [2-ABA, 2-acetyloxybenzoic acid]
combined 2-ABA/2-HBA levels in the plasma ([2]; ingestion of 0.650-1.3 g 2-ABA, humans): 20 to 100 µg/mL
fraction hydrolyzed to 2-HBA in the plasma ([2]; within 30 minutes): about 97%
time in which an initial level is halved in the vitreous ([3]; initial level of 4 μg/ml): 1.5 to 2 h
concentration of 2-ABA/2-HBA in the vitreous ([3]; rabbit eyes, at plasma levels of about 20-100 μg/ml): 5000 to 10000 ng/mL
ID50 (COX-1 and COC-2 enzymes): 0.9 to 9.0 µg/mL
maximum synovial fluid levels [4]: 2.5 µg/mL
time of maximum synovial fluid levels [4]: 19.4 min
maximum plasma levels [4]: 3.3 µg/mL
time of maximum plasma levels [4]: 7.7 min
time until gone in the blood [4]: 75 min

duration of release of Rapamycin [5]: over five
Compound: CO[C@H]1C[C@@H]2CC[C@@H](C)[C@@](O)(O2)C(=O)C(=O)N2CCCC[C@H]2C(=O)O[C@H]([C@H](C)C[C@@H]2CC[C@@H](O)[C@H](OC)C2)CC(=O)[C@H](C)/C=C(\C)[C@@H](O)[C@@H](OC)C(=O)[C@H](C)C[C@H](C)/C=C/C=C/C=C/1C [Rapamycin, rapamycin]

Compound: O=C(O)c1ccccc1O [2-HBA, 2-hydroxy benzoic acid]
maximum synovial fluid levels [4]: 14.5 µg/mL
time of maximum synovial fluid levels [4]: 21.9 min
maximum plasma levels [4]: 23 µg/mL
time of maximum plasma levels [4]: 10.9 min
2-HBA level ([6]; after 120 hours): 5 µg/mL
2-HBA level ([6]; in 20 hours): 20 µg/mL
2-HBA level, initial burst ([6]; within 6 hours): 640 µg/mL

duration of release [7]: sixty
Compound: O=C(O)c1cn(C2CC2)c2cc(N3CCNCC3)c(F)cc2c1=O [ciprofloxacin]

Compound: CC1(C)O[C@@H]2C[C@H]3[C@@H]4CCC5=CC(=O)C=C[C@]5(C)[C@@]4(F)[C@@H](O)C[C@]3(C)[C@]2(C(=O)CO)O1 [TA, triamcinolone acetonide]
concentration above which harmful complications (glaucoma, cataracts, cytotoxicity) can arise [8]: exceed 10 μg/ml
